This note sets out measurements from EP1728511A1, “New use of phenethicillin and salts thereof” (Faust Pharmaceuticals, priority 2005, dated 2006).

This assay has as its system SK-N-SH neuroblastoma cell. As to the kind of experiment: Serum deprivation assay, neuroblastoma cell survival (neutral red incorporation). It is filed as cell-based, Human. The conditions noted are these: dose range of 1-10µM, SK-N-SH cells. An excerpt: Serum provides survival factors (ex: growth factors) necessary to cell viability in culture conditions. According to the serum concentration it is possible to modulate the state of the cell viability. Total suppression of these components triggers cell death via apoptosis or necrosis. Causes of cell death could be oxidative stress and free radical accumulation, mitochondrial dysfunction or imbalanced calcium homeostasis. Human SK-N-SH is a neuronal cell line usually cultured in serum containing medium. Serum withdrawal in the cell culture condition provides a cell-based assay allowing the study of neuroprotection and the screening for drugs capable of protecting cells from death or delaying cell death (Ba et al. (2003) The establishment of a reliable cytotoxic system with SK-N-SH neuroblastoma cell culture. J Neurosci. Methods 123:11-22, Green et al. (1997) 17α-oestradiol exerts neuroprotective effect on SK-N-SH cells. J Neurosci. 17(2):511-515) SK-N-SH cells (passage 35) were obtained from ECACC. […] Cell viability was assessed 48h later. […] The dye (3mg/mL) is allowed to be taken up by the cells one hour at 37°C, 5% CO2, and is subsequently extracted by mixture of acetic acid and ethanol (1/[…]) and measured at 540 nm. […]

For `CC(Oc1ccccc1)C(=O)N[C@@H]1C(=O)N2[C@@H]1SC(C)(C)[C@@H]2C(=O)O` (stereo partly drawn) [phenethicillin, (2S,5R,6R)-3,3-Dimethyl-7-oxo-6-[(1-oxo-2-phenoxypropyl)amino]-4-thia-1-azabicyclo[3.2.0]heptane-2-carboxylic acid], the neuroblastoma cell death entry is recorded as “significantly delayed neuroblastoma cell death”.
